Assay results published in patent US20240415914A1, “Water Dispersible Cannabinoid Compositions” (priority 2021, published 2024).

Assay: Stability of cannabinoid and Vitamin E components of Beverage 1 (AB White) stored at 8° C. and 21-25° C., LCMSMS over 570 days
Type: physicochemical
Conditions: for Stability in AB White, 8° C. (content by LCMSMS): beverage stored at 8° C.; for Stability in AB White, 21-25° C. (content by LCMSMS): beverage stored at 21-25° C.
Method: The LCMSMS was calibrated for 0-1000 ng/ml cannabinoids with the same resin material used in the preparation of the concentrates. At each time period, 100 ml of beverage was diluted with 10 ml of methanol and injected into the LCMSMS for analysis.

CCCCCc1cc(O)c2c(c1)OC(C)(CCC=C(C)C)C=C2 (centres unmarked) [CBC, cannabichromene]
Stability in AB White, 8° C. (content by LCMSMS) (day 0): 0.320 µg/mL
Stability in AB White, 8° C. (content by LCMSMS) (day 1): 0.314 µg/mL
Stability in AB White, 8° C. (content by LCMSMS) (day 2): 0.315 µg/mL
Stability in AB White, 8° C. (content by LCMSMS) (day 3): 0.322 µg/mL
Stability in AB White, 8° C. (content by LCMSMS) (day 5): 0.322 µg/mL
Stability in AB White, 8° C. (content by LCMSMS) (day 8): 0.318 µg/mL
Stability in AB White, 8° C. (content by LCMSMS) (day 9): 0.319 µg/mL
Stability in AB White, 8° C. (content by LCMSMS) (day 10): 0.314 µg/mL
Stability in AB White, 8° C. (content by LCMSMS) (day 11): 0.314 µg/mL
Stability in AB White, 8° C. (content by LCMSMS) (day 12): 0.319 µg/mL
Stability in AB White, 8° C. (content by LCMSMS) (day 15): 0.317 µg/mL
Stability in AB White, 8° C. (content by LCMSMS) (day 16): 0.320 µg/mL
Stability in AB White, 8° C. (content by LCMSMS) (day 17): 0.315 µg/mL
Stability in AB White, 8° C. (content by LCMSMS) (day 18): 0.312 µg/mL
Stability in AB White, 8° C. (content by LCMSMS) (day 19): 0.317 µg/mL
Stability in AB White, 8° C. (content by LCMSMS) (day 22): 0.315 µg/mL
Stability in AB White, 8° C. (content by LCMSMS) (day 23): 0.321 µg/mL
Stability in AB White, 8° C. (content by LCMSMS) (day 24): 0.316 µg/mL
Stability in AB White, 8° C. (content by LCMSMS) (day 25): 0.310 µg/mL
Stability in AB White, 8° C. (content by LCMSMS) (day 26): 0.316 µg/mL
Stability in AB White, 8° C. (content by LCMSMS) (day 29): 0.321 µg/mL
Stability in AB White, 8° C. (content by LCMSMS) (day 30): 0.317 µg/mL
Stability in AB White, 8° C. (content by LCMSMS) (day 60): 0.316 µg/mL
Stability in AB White, 8° C. (content by LCMSMS) (day 90): 0.318 µg/mL
Stability in AB White, 8° C. (content by LCMSMS) (day 120): 0.311 µg/mL
Stability in AB White, 8° C. (content by LCMSMS) (day 150): 0.314 µg/mL
Stability in AB White, 8° C. (content by LCMSMS) (day 180): 0.319 µg/mL
Stability in AB White, 8° C. (content by LCMSMS) (day 210): 0.309 µg/mL
Stability in AB White, 8° C. (content by LCMSMS) (day 240): 0.316 µg/mL
Stability in AB White, 8° C. (content by LCMSMS) (day 270): 0.316 µg/mL
Stability in AB White, 8° C. (content by LCMSMS) (day 300): 0.313 µg/mL
Stability in AB White, 8° C. (content by LCMSMS) (day 330): 0.316 µg/mL
Stability in AB White, 8° C. (content by LCMSMS) (day 360): 0.306 µg/mL
Stability in AB White, 8° C. (content by LCMSMS) (day 390): 0.310 µg/mL
Stability in AB White, 8° C. (content by LCMSMS) (day 420): 0.307 µg/mL
Stability in AB White, 8° C. (content by LCMSMS) (day 450): 0.312 µg/mL
Stability in AB White, 8° C. (content by LCMSMS) (day 480): 0.305 µg/mL
Stability in AB White, 8° C. (content by LCMSMS) (day 510): 0.295 µg/mL
Stability in AB White, 8° C. (content by LCMSMS) (day 540): 0.299 µg/mL
Stability in AB White, 8° C. (content by LCMSMS) (day 570): 0.293 µg/mL
Stability in AB White, 21-25° C. (content by LCMSMS) (day 0): 0.320 µg/mL
Stability in AB White, 21-25° C. (content by LCMSMS) (day 1): 0.313 µg/mL
Stability in AB White, 21-25° C. (content by LCMSMS) (day 2): 0.318 µg/mL
Stability in AB White, 21-25° C. (content by LCMSMS) (day 3): 0.311 µg/mL
Stability in AB White, 21-25° C. (content by LCMSMS) (day 5): 0.323 µg/mL
Stability in AB White, 21-25° C. (content by LCMSMS) (day 8): 0.319 µg/mL
Stability in AB White, 21-25° C. (content by LCMSMS) (day 9): 0.307 µg/mL
Stability in AB White, 21-25° C. (content by LCMSMS) (day 10): 0.312 µg/mL
Stability in AB White, 21-25° C. (content by LCMSMS) (day 11): 0.311 µg/mL
Stability in AB White, 21-25° C. (content by LCMSMS) (day 12): 0.316 µg/mL
Stability in AB White, 21-25° C. (content by LCMSMS) (day 15): 0.311 µg/mL
Stability in AB White, 21-25° C. (content by LCMSMS) (day 16): 0.321 µg/mL
Stability in AB White, 21-25° C. (content by LCMSMS) (day 17): 0.323 µg/mL
Stability in AB White, 21-25° C. (content by LCMSMS) (day 18): 0.313 µg/mL
Stability in AB White, 21-25° C. (content by LCMSMS) (day 19): 0.316 µg/mL
Stability in AB White, 21-25° C. (content by LCMSMS) (day 22): 0.322 µg/mL
Stability in AB White, 21-25° C. (content by LCMSMS) (day 23): 0.316 µg/mL
Stability in AB White, 21-25° C. (content by LCMSMS) (day 24): 0.308 µg/mL
Stability in AB White, 21-25° C. (content by LCMSMS) (day 25): 0.310 µg/mL
Stability in AB White, 21-25° C. (content by LCMSMS) (day 26): 0.308 µg/mL
Stability in AB White, 21-25° C. (content by LCMSMS) (day 29): 0.317 µg/mL
Stability in AB White, 21-25° C. (content by LCMSMS) (day 30): 0.317 µg/mL
Stability in AB White, 21-25° C. (content by LCMSMS) (day 60): 0.306 µg/mL
Stability in AB White, 21-25° C. (content by LCMSMS) (day 90): 0.305 µg/mL
Stability in AB White, 21-25° C. (content by LCMSMS) (day 120): 0.318 µg/mL
Stability in AB White, 21-25° C. (content by LCMSMS) (day 150): 0.312 µg/mL
Stability in AB White, 21-25° C. (content by LCMSMS) (day 180): 0.315 µg/mL
Stability in AB White, 21-25° C. (content by LCMSMS) (day 210): 0.307 µg/mL
Stability in AB White, 21-25° C. (content by LCMSMS) (day 240): 0.304 µg/mL
Stability in AB White, 21-25° C. (content by LCMSMS) (day 270): 0.316 µg/mL
Stability in AB White, 21-25° C. (content by LCMSMS) (day 300): 0.312 µg/mL
Stability in AB White, 21-25° C. (content by LCMSMS) (day 330): 0.312 µg/mL
Stability in AB White, 21-25° C. (content by LCMSMS) (day 360): 0.310 µg/mL
Stability in AB White, 21-25° C. (content by LCMSMS) (day 390): 0.303 µg/mL
Stability in AB White, 21-25° C. (content by LCMSMS) (day 420): 0.312 µg/mL
Stability in AB White, 21-25° C. (content by LCMSMS) (day 450): 0.310 µg/mL
Stability in AB White, 21-25° C. (content by LCMSMS) (day 480): 0.294 µg/mL
Stability in AB White, 21-25° C. (content by LCMSMS) (day 510): 0.293 µg/mL
Stability in AB White, 21-25° C. (content by LCMSMS) (day 540): 0.294 µg/mL
Stability in AB White, 21-25° C. (content by LCMSMS) (day 570): 0.295 µg/mL
